Among the data in patent US20170037028A1 (BAYER PHARMA AKTIENGESELLSCHAFT, priority 2013, published 2017) are IC50 values, retold here.

The assay deals with T1, GLUT1 (Homo sapiens, UniProt P11166).
T1 sequence (P11166 1-492): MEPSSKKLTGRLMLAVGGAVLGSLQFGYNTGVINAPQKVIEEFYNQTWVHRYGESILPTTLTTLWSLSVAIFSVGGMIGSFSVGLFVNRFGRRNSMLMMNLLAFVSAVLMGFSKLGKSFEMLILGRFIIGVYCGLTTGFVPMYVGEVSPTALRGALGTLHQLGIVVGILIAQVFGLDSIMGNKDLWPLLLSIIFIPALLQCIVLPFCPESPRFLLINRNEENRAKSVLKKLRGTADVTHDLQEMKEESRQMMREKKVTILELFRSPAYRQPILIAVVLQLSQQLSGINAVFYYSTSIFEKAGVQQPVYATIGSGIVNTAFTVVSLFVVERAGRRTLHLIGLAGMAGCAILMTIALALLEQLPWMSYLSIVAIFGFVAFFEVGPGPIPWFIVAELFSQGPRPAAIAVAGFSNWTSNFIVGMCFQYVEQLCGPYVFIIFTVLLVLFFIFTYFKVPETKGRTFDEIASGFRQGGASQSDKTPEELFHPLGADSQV
In words: Indirect measurement of GLUT1 activity by quantification of intracellular ATP levels (glucose induced ATP increase). Type of assay: cell-based. More on the design: endogenous in cells; host or cells: DLD1 or CHO-K1. Conditions: read-out: IC50 regarding glucose induced ATP increase (GLUT1 inhibition). The method, boiled down:
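Intracellular ATP was measured by CellTiter-Glo luminescence as an indirect readout of transport: glucose-driven for GLUT1, fructose-driven for GLUT2. DLD1 or CHO-K1 cells were used alongside an oxidative phosphorylation inhibitor. Beforehand, cells were held overnight in glucose-free 1% FCS medium to deplete ATP.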
One may read the IC50 as the midpoint of a concentration-inhibition curve. As for `Cc1nn(Cc2ccc(C#N)cc2)c(C(F)(F)F)c1NC(=O)c1cc(C(N)=O)nc2cc(F)ccc12` [Example 389, N^4-[1-(4-cyanobenzyl)-3-methyl-5-(trifluoromethyl)-1H-pyrazol-4-yl]-7-fluoroquinoline-2,4-dicarboxamide], the IC50 was found to be 1.9 nM.

For `Cc1nn(Cc2c(F)cc(C#N)cc2F)c(C)c1NC(=O)c1cc(C(N)=O)nc2cc(F)ccc12` [Example 390, N^4-[1-(4-cyano-2,6-difluorobenzyl)-3,5-dimethyl-1H-pyrazol-4-yl]-7-fluoroquinoline-2,4-dicarboxamide], the IC50 came out at 5.5 nM.

As for `Cc1nn(Cc2c(F)cc(C#N)cc2F)c(C)c1NC(=O)c1cc(C(N)=O)nc2ccccc12` [Example 391, N^4-[1-(4-cyano-2,6-difluorobenzyl)-3,5-dimethyl-1H-pyrazol-4-yl]quinoline-2,4-dicarboxamide], the IC50 is 7 nM.

For `Cc1nn(Cc2c(F)cc(C#N)cc2F)c(C)c1NC(=O)c1cc(C(N)=O)nc2cc(F)c(Cl)cc12` [Example 392, 6-chloro-N^4-[1-(4-cyano-2,6-difluorobenzyl)-3,5-dimethyl-1H-pyrazol-4-yl]-7-fluoroquinoline-2,4-dicarboxamide], the IC50 worked out at 21.6 nM.

As to `Cc1nn(Cc2c(F)cc(C#N)cc2F)c(C)c1NC(=O)c1cc(C(N)=O)nc2cccc(F)c12` [Example 393, N^4-[1-(4-cyano-2,6-difluorobenzyl)-3,5-dimethyl-1H-pyrazol-4-yl]-5-fluoroquinoline-2,4-dicarboxamide], the IC50 stood at 4.1 nM.

`Cc1nn(Cc2c(F)cc(C#N)cc2F)c(C)c1NC(=O)c1cc(C(N)=O)nc2ccc(Br)cc12` [Example 394, 6-bromo-N^4-[1-(4-cyano-2,6-difluorobenzyl)-3,5-dimethyl-1H-pyrazol-4-yl]quinoline-2,4-dicarboxamide]: the IC50 was 2.6 nM.

Consider `Cc1c(NC(=O)c2cc(C(N)=O)nc3cc(F)ccc23)c(C(F)(F)F)nn1Cc1c(F)cc(C#N)cc1F` [Example 395, N^4-[1-(4-cyano-2,6-difluorobenzyl)-5-methyl-3-(trifluoromethyl)-1H-pyrazol-4-yl]-7-fluoroquinoline-2,4-dicarboxamide], for which the IC50 worked out at 5.3 nM.

With `Cc1c(NC(=O)c2cc(C(N)=O)nc3ccccc23)c(C(F)(F)F)nn1Cc1c(F)cc(C#N)cc1F` [Example 396, N^4-[1-(4-cyano-2,6-difluorobenzyl)-5-methyl-3-(trifluoromethyl)-1H-pyrazol-4-yl]quinoline-2,4-dicarboxamide], the IC50 was determined as 15.9 nM.

`Cc1c(NC(=O)c2cc(C(N)=O)nc3cccc(F)c23)c(C(F)(F)F)nn1Cc1c(F)cc(C#N)cc1F` [Example 397, N^4-[1-(4-cyano-2,6-difluorobenzyl)-5-methyl-3-(trifluoromethyl)-1H-pyrazol-4-yl]-5-fluoroquinoline-2,4-dicarboxamide]: the IC50 stood at 7.5 nM.

For the molecule `Cc1c(NC(=O)c2cc(C(N)=O)nc3cc(F)c(Cl)cc23)c(C(F)(F)F)nn1Cc1c(F)cc(C#N)cc1F` [Example 398, 6-chloro-N^4-[1-(4-cyano-2,6-difluorobenzyl)-5-methyl-3-(trifluoromethyl)-1H-pyrazol-4-yl]-7-fluoroquinoline-2,4-dicarboxamide], the IC50 worked out at 5.5 nM.

For `Cc1c(NC(=O)c2cc(C(N)=O)nc3ccc(Br)cc23)c(C(F)(F)F)nn1Cc1c(F)cc(C#N)cc1F` [Example 399, 6-bromo-N^4-[1-(4-cyano-2,6-difluorobenzyl)-5-methyl-3-(trifluoromethyl)-1H-pyrazol-4-yl]quinoline-2,4-dicarboxamide], the IC50 stood at 4.5 nM.

Regarding `Cc1c(NC(=O)c2cc(C(N)=O)nc3cc(F)ccc23)c(C(F)(F)F)nn1Cc1ccc(-c2nnn[nH]2)cc1` [Example 400, 7-fluoro-N^4-{5-methyl-1-[4-(1H-tetrazol-5-yl)benzyl]-3-(trifluoromethyl)-1H-pyrazol-4-yl}quinoline-2,4-dicarboxamide], the IC50 was 1260 nM.

`COCc1ccc(Cn2nc(C(F)(F)F)c(NC(=O)c3cc(C(N)=O)nc4cc(F)ccc34)c2C)cc1` [Example 401, 7-fluoro-N^4-{1-[4-(methoxymethyl)benzyl]-5-methyl-3-(trifluoromethyl)-1H-pyrazol-4-yl}quinoline-2,4-dicarboxamide]: the IC50 is 10 nM.

As for `COCc1ccc(Cn2nc(C(F)(F)F)c(NC(=O)c3cc(C(N)=O)nc4cccc(F)c34)c2C)cc1` [Example 402, 5-fluoro-N^4-{1-[4-(methoxymethyl)benzyl]-5-methyl-3-(trifluoromethyl)-1H-pyrazol-4-yl}quinoline-2,4-dicarboxamide], the IC50 worked out at 6.7 nM.

Regarding `Cc1c(NC(=O)c2cc(C(N)=O)nc3cc(F)ccc23)c(C(F)(F)F)nn1Cc1ccc(CC#N)cc1` [Example 403, N^4-{1-[4-(cyanomethyl)benzyl]-5-methyl-3-(trifluoromethyl)-1H-pyrazol-4-yl}-7-fluoroquinoline-2,4-dicarboxamide], the IC50 is 1 nM.

With `CNC(=O)c1nc(Cn2nc(C)c(NC(=O)c3cc(C(F)(F)F)nc4ccc(Br)cc34)c2C)no1` [Example 404, 6-bromo-N-(3,5-dimethyl-1-{[5-(methylcarbamoyl)-1,2,4-oxadiazol-3-yl]methyl}-1H-pyrazol-4-yl)-2-(trifluoromethyl)quinoline-4-carboxamide], the IC50 came to 1.4 nM.

Regarding `Cc1nn(CC2CCN(C(=O)OC(C)(C)C)CC2)c(C)c1NC(=O)c1cc(C(N)=O)nc2ccccc12` [Example 405, tert-butyl 4-[(4-{[(2-carbamoylquinolin-4-yl)carbonyl]amino}-3,5-dimethyl-1H-pyrazol-1-yl)methyl]piperidine-1-carboxylate], the IC50 worked out at 242 nM.

Consider `Cc1nn(CC2CCNCC2)c(C)c1NC(=O)c1cc(C(N)=O)nc2ccccc12` [Example 406, N^4-[3,5-dimethyl-1-(piperidin-4-ylmethyl)-1H-pyrazol-4-yl]quinoline-2,4-dicarboxamide], for which the IC50 was 1530 nM.

Consider `CCS(=O)(=O)N1CCC(Cn2nc(C)c(NC(=O)c3cc(C(N)=O)nc4ccccc34)c2C)CC1` [Example 407, N^4-(1-{[1-(ethylsulfonyl)piperidin-4-yl]methyl}-3,5-dimethyl-1H-pyrazol-4-yl)quinoline-2,4-dicarboxamide], for which the IC50 was 2.1 nM.

For the molecule `Cc1cc(Cn2nc(C(F)(F)F)c(NC(=O)c3cc(C(N)=O)nc4cc(F)c(Cl)cc34)c2C)no1` [Example 408, 6-chloro-7-fluoro-N^4-{5-methyl-1-[(5-methyl-1,2-oxazol-3-yl)methyl]-3-(trifluoromethyl)-1H-pyrazol-4-yl}quinoline-2,4-dicarboxamide], the IC50 was determined as 7.8 nM.

In the case of `CCc1nc(Cn2nc(C(F)(F)F)c(NC(=O)c3cc(C(N)=O)nc4cc(F)c(Cl)cc34)c2C)no1` [Example 409, 6-chloro-N^4-{1-[(5-ethyl-1,2,4-oxadiazol-3-yl)methyl]-5-methyl-3-(trifluoromethyl)-1H-pyrazol-4-yl}-7-fluoroquinoline-2,4-dicarboxamide], the IC50 worked out at 5.5 nM.

Turning to `CCc1cc(Cn2nc(C(F)(F)F)c(NC(=O)c3cc(C(N)=O)nc4cc(F)c(Cl)cc34)c2C)on1` [Example 410, 6-chloro-N^4-{1-[(3-ethyl-1,2-oxazol-5-yl)methyl]-5-methyl-3-(trifluoromethyl)-1H-pyrazol-4-yl}-7-fluoroquinoline-2,4-dicarboxamide], the IC50 came to 8.9 nM.
